Measured values reported in ChEMBL document CHEMBL3507680, “University of Dundee, Gates Library screen for HepG2 cell viability”.

Experiment: Human HepG2 cell viability assay in 384 well format
Type: toxicity, cell-based
Parameters: dose 125 nL, time 70.5 hour; cytotoxicity at 70.5 h: concentration not given beside the values
Conditions: HepG2 cells, read-out: Inhibition

Compound	cytotoxicity at 70.5 h
COC(=O)C(NC(=O)CC(C)C)c1cc(F)ccc1F (stereo not given)	-1.44%
O=c1cc(CN2CC[C@H]3CC[C@@H](C2)N3)c2cccc3c2n1CCC3	-14.4%
CNC(=O)N1CC[C@H]2N(C)CC[C@@]2(C(=O)N2CCOCC2)CC1	-4.42%
c1ccc2oc(C3CCN(Cc4ncon4)CC3)nc2c1	-0.981%
Cc1cc(C)n(C2CCCN(C(=O)c3ccc(F)cc3F)C2)n1 (stereo not given)	-0.896%
Cn1c(=O)oc2ccc(NC(=O)N3CCOCC3)cc21	31.6%
CC(=O)N1CCC(N2CC[C@H](c3nc4cc(F)ccc4o3)C2)CC1	0.135%
O=C(Nc1cccnc1)[C@@H]1CCO[C@@H]2CCN(Cc3cccnc3)C[C@@H]21	-22.1%
O=c1[nH]c2c(-c3ccccn3)nsc2c(=O)n1C1CCCCC1	-5.9%
CC(NC(=O)Cn1ccc2sccc2c1=O)c1ccccc1 (stereo not given)	-10.1%
O=C(NC1CCCC1)O[C@H]1COCCN(c2nc3ccccc3o2)C1	-3.6%
CCOc1ccccc1CC(=O)N1C[C@H](C2CC2)[C@@H](N)C1	-0.519%
CN(C)C(C(=O)N1CCC(CCO)CC1)c1ccccc1F (stereo not given)	8.83%
Cc1nonc1C(=O)N1CC[C@@]2(O)CCN(C3CCCCC3)C[C@H]2C1	-9.95%
COc1ccc(CNc2c(N3CCN(C)CC3)c(=O)c2=O)cc1	-8.39%
Cn1nc(COc2cccnc2)c2c1CCN(CC1CC1)C2	-8.94%
CC(C)c1ccc(NC2CCCN(Cc3ccncc3)C2)cc1 (stereo not given)	0.778%
CN(CCN1CCOCC1)C(=O)CCc1cccc(Cl)c1	20.6%
CN(CCc1noc(C2CC2)n1)C(=O)CCc1cc2n(n1)CCCNC2	-9.33%
Cc1ccc(CC(=O)N2CCOC(c3nc(C)n[nH]3)C2)cn1 (stereo not given)	-4.16%
O=C(C1CCOCC1)N1CCC2(CCN(Cc3nccs3)CC2)CC1	9.62%
COC[C@H]1CC[C@H]2[C@H](CCN2C(=O)c2ccncc2F)O1	-0.359%
CCCC1(CO)CCCN(C(=O)CN2CCN(CC)CC2)C1 (stereo not given)	-24.3%
COCCN(C)CC1CCCN1S(=O)(=O)c1cc(C)oc1C (stereo not given)	-4.11%
CNc1nc2c(c(C(=O)N3CCCC3)n1)CN(Cc1nccn1C)CC2	-10.9%
Cc1c(-c2cc(C(F)(F)F)nc(N3CCC(N)CC3)n2)cnn1C	32.2%
NCCCC(=O)N1CCC2(CC1)CN(C(=O)c1ccc(Cl)cc1)CCO2	-12.4%

Compound	cytotoxicity at 70.5 h
CN1CC2(CCCN(Cc3nnc(-c4ccccc4)o3)CC2)OC1=O (stereo not given)	-15%
O=C(c1ccncc1)N1CCCC(C2=Nc3ccccc3S(=O)(=O)N2)C1 (stereo not given)	-3.07%
COCCN1CCO[C@@H]2CN(C(=O)Cc3ccc(F)cc3)CC[C@@H]2C1	4.68%
CCC(=O)N1CCC(NC(=O)c2cccc(-n3ccnc3)c2)C1 (stereo not given)	-8.46%
O=C(CN1CCCC(Cn2cncn2)C1)NCc1ccccc1F (stereo not given)	-4.63%
CS(=O)(=O)NCC(=O)NC1(c2ccc(Cl)c(Cl)c2)CC1	-2.05%
Cc1noc2ncc(C(=O)NCC3CCCO3)cc12 (stereo not given)	-7.11%
COCCNC(=O)c1ccc(C)c(-n2cccc2)c1	-2.8%
c1ccc(N2CCN(Cc3cnc(C4CCCCO4)nc3)CC2)cc1 (stereo not given)	4.6%
COc1ccccc1CCNC(=O)N1CCC(n2cncn2)CC1	-7.07%
CCC1(CC)CC(=O)N(CC(O)c2cc(F)ccc2F)C1=O (stereo not given)	-4.77%
CSCC(C)(O)CNC(=O)c1cccc(Cl)c1Cl (stereo not given)	-5.93%
CCc1ccc(CN(CCCn2ccnc2)Cc2ccc(C)s2)o1	21.1%
CN(C)C(=O)N1CCC2(CC1)CCN(c1ncccn1)C2	2.39%
Cc1c(F)cc(C(=O)O)cc1S(=O)(=O)Nc1ccc(F)c(C#N)c1	-9.42%
CC(NS(=O)(=O)CC1(C#N)CCCC1)c1cccc(-n2cccn2)c1 (stereo not given)	-3.64%
CC(O)CN1CCN(C(=O)c2cnn(-c3ccc(Cl)cc3)c2)CC1 (stereo not given)	-5.02%
CC(Cn1cccn1)C(=O)N1CCC(Nc2cccnn2)CC1 (stereo not given)	-10%
Cc1ccc(CN2CC3(CCN(C(=O)c4cccnc4)C3)C2)o1	3.03%
O=C(NCC1CCCN(C(=O)NCCc2ccccc2)C1)c1ccco1 (stereo not given)	-0.863%
N#Cc1ccc(CNC(=O)NCCNC(=O)C2CCCC2)c(F)c1	13.4%
CC(=O)N1CCC(Oc2ccc(Cl)cn2)CC1	0.563%
CCC(C)CN(C)C(=O)NCc1ccccc1-n1cccn1 (stereo not given)	1.17%
CN(Cc1ccccc1)C(=O)CSc1ccc2c(c1)OCCO2	2.14%
CN(C)CCN1CC[C@@H]2O[C@@H](COCC(=O)N3CCCC3)CC[C@@H]21	-0.268%
CC(C)Cc1cc(CC2(NCc3ccccc3Cl)COC2)no1	4.27%
O=C(O)c1nnn(-c2cccc(C(F)(F)F)c2)c1-c1ccncc1	5.64%

Compound	cytotoxicity at 70.5 h
O=C(CCc1cccc(Cl)c1)NS(=O)(=O)Cc1ccon1	1.74%
Cc1cnn(C2CCCN(C(=O)CCNS(C)(=O)=O)C2)c1 (stereo not given)	24.7%
CN(C(=O)CNc1ccc(C#N)cc1)C1CCN(c2ccccn2)CC1	-10%
COc1ccc2c(c1)C(NCCc1c(C)noc1C)CCCO2 (stereo not given)	29.3%
CCn1ncc2[nH]c(-c3ccc(OC)c(COC)c3)nc21	-6.61%
COc1ccc(C(=O)N2CCOCC2c2[nH]ncc2C)cc1F (stereo not given)	-3.4%
CC(C)c1nnc2ccc(N3CCC(C(=O)NC4CC4)CC3)nn12	-25%
Cc1ccc(OCCC(=O)NC2CCc3nc(C)cn3C2)cc1 (stereo not given)	2.29%
CCN1C[C@H]2CCN(C(C)=O)CC[C@H]2S1(=O)=O	-14.5%
CSc1cc2c(cc1NC(=O)NCc1ccco1)OCCO2	-5.54%
COCCC(=O)N1CCC2(COCc3cnc(NCC4CC4)nc32)C1 (stereo not given)	1.86%
CC(C)(C)n1cc(C(=O)NCCCn2ccnc2)c2cccnc21	-4.7%
Cc1nc(CCCNC(=O)c2cc(F)ccc2O)n[nH]1	-9.81%
O=C(NC1CCN(C2CC2)CC1)NC1CCOc2ccc(Br)cc21 (stereo not given)	5.74%
Cc1cc(-c2cncnc2)nc(C2CCCN2S(C)(=O)=O)n1 (stereo not given)	-2.87%
Nc1nccc(C2CCCCN2Cc2cccc(F)c2)n1 (stereo not given)	-2.1%
Cc1nc([C@H]2C[C@H]3CN(C(=O)c4cc(C)c(C)s4)CC[C@@H]3O2)no1	-12.1%
CC(C(=O)N1CCC(Nc2cccnn2)CC1)n1ccnc1 (stereo not given)	-8.6%
O=C(C(CNCc1ccsc1)c1ccccc1)N1CCOCC1 (stereo not given)	-2.8%
COCCN1CCCC2(CCN(c3nc(C)nc4c3CCC4)C2)C1=O (stereo not given)	-4.89%
Cc1nc(-c2ccc(CC(=O)N3CCN(C(=O)C(C)C)CC3)cc2)cs1	-1.97%
CC1c2ncc(CNC(=O)C3CC3)n2CCN1Cc1nccs1 (stereo not given)	-7.88%
CC1(NC(=O)Cc2csc(-c3ccccc3Cl)n2)CCS(=O)(=O)C1 (stereo not given)	-88.9%
CCc1c(C)nn2c(O)cc(C3CCN(C(=O)C4CC4)C3)nc12 (stereo not given)	-6%
Cc1cccc(CN2C[C@@H]3COC[C@]3(COc3ccc(C#N)cn3)C2)n1	-0.115%
Cn1cc(CN2CCCC3(COCCN(Cc4c[nH]nn4)C3)C2)cn1 (stereo not given)	0.634%
